Reference: ChEMBL document CHEMBL1128970, “Synthesis and characterization of the second cysteine-rich region of mouse skin PKCGh” (Bioorg Med Chem Lett, 1996)

Columns and labels:
[1] = molecular target: T1, Protein kinase C gamma type (Rattus norvegicus, UniProt P63319); assay: Inhibition of [3H]- PDBu binding to peptide C, rat brain PKC gamma (inactive)
[2] = molecular target: T2, Protein kinase C eta type (Mus musculus, UniProt P23298); assay: Inhibition of [3H]- PDBu binding to peptide D of mouse skin Protein kinase C eta (inactive)
[3] = molecular target: T2, Protein kinase C eta type; assay: Inhibition of [3H]- PDBu binding to peptide D of mouse skin Protein kinase C eta
[4] = molecular target: T1, Protein kinase C gamma type; assay: Inhibition of [3H]- PDBu binding to peptide C, rat brain PKC gamma

T2 sequence (P23298 whole entry): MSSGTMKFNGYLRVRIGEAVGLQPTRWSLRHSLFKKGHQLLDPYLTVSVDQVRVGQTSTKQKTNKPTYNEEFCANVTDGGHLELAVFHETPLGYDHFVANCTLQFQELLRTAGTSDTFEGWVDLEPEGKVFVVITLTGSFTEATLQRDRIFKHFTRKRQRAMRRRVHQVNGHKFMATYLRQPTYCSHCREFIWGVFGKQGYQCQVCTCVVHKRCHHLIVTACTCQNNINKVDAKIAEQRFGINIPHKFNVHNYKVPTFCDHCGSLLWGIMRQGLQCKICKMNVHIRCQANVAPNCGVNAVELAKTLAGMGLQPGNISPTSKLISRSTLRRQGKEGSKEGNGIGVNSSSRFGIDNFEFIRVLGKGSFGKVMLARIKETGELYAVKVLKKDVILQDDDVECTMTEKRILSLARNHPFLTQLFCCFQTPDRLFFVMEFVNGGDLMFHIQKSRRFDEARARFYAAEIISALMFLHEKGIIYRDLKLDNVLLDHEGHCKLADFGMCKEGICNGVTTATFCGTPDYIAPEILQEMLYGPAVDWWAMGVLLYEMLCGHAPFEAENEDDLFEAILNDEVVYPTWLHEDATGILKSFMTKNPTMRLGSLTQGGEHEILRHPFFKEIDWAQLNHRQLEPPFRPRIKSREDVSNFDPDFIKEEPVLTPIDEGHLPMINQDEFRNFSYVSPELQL

Row | Compound | Ki [1] | Ki [2] | Ki [3] | Ki [4]
1 | CCCCCCCCCC(=O)O[C@@H]1[C@@H](C)[C@@]2(O)[C@@H](C=C(CO)C[C@@]3(O)C(=O)C(C)=C[C@@H]23)[C@@H]2C(C)(C)[C@]12OC(=O)CCCCCCCCC | Not Active | Not Active | – | –
2 | CCCC(=O)O[C@@H]1[C@@H](C)[C@@]2(O)[C@@H](C=C(CO)C[C@]3(O)C(=O)C(C)=C[C@@H]23)[C@@H]2C(C)(C)[C@]12OC(=O)CCC | – | – | 0.6 nM | 52.9 nM
3 | C=C[C@@]1(C)CC[C@](C)(C(C)C)c2cc3c4c(c[nH]c4c21)C[C@@H](CO)NC(=O)[C@H](C(C)C)N3C | – | – | 0.1 nM | 2 nM
4 | CCCCCCCC(=O)OCC(CO)OC(=O)CCCCCCC (configuration not stated) [MONOCTANOIN COMPONENT C] | – | – | 14.5 nM | –
